Laboratory results from the supplement of paper PMC10331698.
± gives the standard deviation of the averaged measurements.

How the values were obtained:
Experiment in all cases: level (log10 ratio to DMSO vehicle control); higher = higher biomarker level / cell amount than vehicle control
Perfluorononanoic acid = compound: O=C(O)C(F)(F)C(F)(F)C(F)(F)C(F)(F)C(F)(F)C(F)(F)C(F)(F)C(F)(F)F [Perfluorononanoic acid] (in DMSO)
Protocol: (§1)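 BioMAP Diversity Plus panel of 12 human primary cell co-culture systems (3C, 4H, LPS, SAg, BT, BF4T, BE3C, CASM3C, HDF3CGF, KF3CT, MyoF, Mphg). Compounds were added 1 h before stimulation and left for 24 h (MyoF 48 h; BT 72 h for soluble read-outs or 6 d for IgG). Biomarkers were read by ELISA, cytotoxicity by SRB, PBMC viability and proliferation by Alamar Blue. Each well value was divided by the mean of 8 DMSO control wells on the same plate and log10 transformed; duplicate blinded samples were tested at 4 concentrations.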

[1] = compound: O=C(O)C(F)(OC(F)(F)C(F)(OC(F)(F)C(F)(OC(F)(F)C(F)(F)C(F)(F)F)C(F)(F)F)C(F)(F)F)C(F)(F)F [Perfluoro-(2,5,8-trimethyl-3,6,9-trioxadodecanoic)acid] (in DMSO)
Protocol: as §1

[2] = compound: CN(C(=O)C(F)(F)C(F)(F)C(F)(F)F)[Si](C)(C)C [N-Methyl-N-trimethylsilylheptafluorobutyramide] (in DMSO)
Protocol: as §1

[3] = compound: C=C(C)C(=O)OCCC(F)(F)C(F)(F)C(F)(F)C(F)(F)C(F)(F)C(F)(F)C(F)(F)C(F)(F)F [8:2 Fluorotelomer methacrylate] (in DMSO)
Protocol: as §1

[4] = compound: O=C(O)C(F)(F)OC(F)(F)C(F)(F)OC(F)(F)C(F)(F)OC(F)(F)C(F)(F)C(F)(F)C(F)(F)F [Perfluoro-3,6,9-trioxatridecanoic acid] (in DMSO); conditions: 6700 nM
Protocol: as §1

[5] = compound: OCCC(F)(F)C(F)(F)C(F)(F)C(F)(F)F [4:2 Fluorotelomer alcohol] (in DMSO)
Protocol: as §1

[6] = compound: O=C(O)C(F)(F)C(F)(F)C(F)(F)OC(F)(F)F [Perfluoro(4-methoxybutanoic) acid] (in DMSO)
Protocol: as §1

[7] = compound: O=S(=O)(O)C(F)(F)C(F)(F)OC(F)(F)C(F)(F)F [Perfluoro(2-ethoxyethane)sulfonic acid] (in DMSO)
Protocol: as §1

Test System	level (log10) (Perfluorononanoic acid; 6700 nM)	level (log10) (Perfluorononanoic acid; 20000 nM)	level (log10) ([1]; 1100 nM)	level (log10) ([1]; 3300 nM)	level (log10) ([1]; 10000 nM)	level (log10) ([2]; 6700 nM)	level (log10) ([2]; 20000 nM)	level (log10) ([2]; 60000 nM)	level (log10) ([3]; 6700 nM)	level (log10) ([3]; 20000 nM)	level (log10) [4]	level (log10) ([5]; 6700 nM)	level (log10) ([5]; 20000 nM)	level (log10) ([5]; 60000 nM)	level (log10) ([6]; 6700 nM)	level (log10) ([6]; 20000 nM)	level (log10) ([6]; 60000 nM)	level (log10) ([7]; 6700 nM)	level (log10) ([7]; 20000 nM)	level (log10) ([7]; 60000 nM)
HDF3CGF:TIMP-1	-0.0225 ± 0.026	-0.039 ± 0.03	-0.0095 ± 0.04	0.003 ± 0.03	0.0065 ± 0.011	-0.036 ± 0.017	-0.038 ± 0.018	-0.031 ± 0.0071	-0.0115 ± 0.036	-0.0375 ± 0.074	-0.109 ± 0.088	-0.045 ± 0.018	-0.02 ± 0.059	0.0035 ± 0.005	-0.0005 ± 0.035	0.0105 ± 0.067	0.0195 ± 0.042	0.0415 ± 0.067	0.048 ± 0.04	0.0955 ± 0.071
KF3CT:CD54/ICAM-1	-0.0235 ± 0.013	-0.0455 ± 0.037	0.004 ± 0.0042	-0.0025 ± 0.0064	0.013 ± 0.013	-0.001 ± 0.0028	-0.0045 ± 0.0092	-0.0065 ± 0.013	-0.017 ± 0.013	0.004 ± 0.021	0.019 ± 0.0042	-0.0115 ± 0.0092	0.0015 ± 0.019	-0.009 ± 0.0057	-0.005 ± 0.024	-0.017	-0.002 ± 0.013	-0.002 ± 0.0099	-0.0275 ± 0.0064	-0.0165 ± 0.00071
CASM3C:CD106/VCAM-1	0.013 ± 0.0042	-0.0245 ± 0.1	0.0125 ± 0.012	-0.003 ± 0.031	-0.0025 ± 0.005	-0.007 ± 0.0042	-0.027 ± 0.0057	-0.0175 ± 0.013	-0.006 ± 0.0014	-0.0145 ± 0.036	-0.035 ± 0.024	0.0435 ± 0.023	-0.0035 ± 0.023	-0.0005 ± 0.042	-0.0045 ± 0.057	-0.0015 ± 0.042	-0.008 ± 0.035	-0.0035 ± 0.023	-0.0165 ± 0.026	0.001 ± 0.018
KF3CT:IL-1alpha	-0.0365 ± 0.053	-0.105 ± 0.043	-0.0015 ± 0.005	-0.0195 ± 0.012	0.006 ± 0.0028	-0.0155 ± 0.0021	-0.017 ± 0.0099	0.008 ± 0.034	-0.0145 ± 0.036	-0.028 ± 0.031	-0.041 ± 0.03	-0.0325 ± 0.018	-0.056 ± 0.098	-0.0665 ± 0.067	-0.003 ± 0.0099	-0.015 ± 0.027	0 ± 0.021	0.0005 ± 0.0064	-0.013 ± 0.025	0.0045 ± 0.05
CASM3C:CXCL9/MIG	0.014 ± 0.028	0.005 ± 0.057	0.0055 ± 0.0021	-0.0065 ± 0.0092	0.0075 ± 0.005	-0.0095 ± 0.005	-0.0065 ± 0.015	0.008 ± 0.03	-0.017 ± 0.011	0.018 ± 0.042	-0.01 ± 0.0014	0.008 ± 0.0014	0.0085 ± 0.029	0.0245 ± 0.056	-0.0025 ± 0.016	-0.0105 ± 0.0078	0.015 ± 0.0028	-0.0205 ± 0.0064	-0.0105 ± 0.0035	0.0145 ± 0.057
BE3C:MMP-9	-0.0075 ± 0.00071	0.0055 ± 0.011	-0.0155 ± 0.0092	-0.011 ± 0.0071	-0.0145 ± 0.011	-0.023 ± 0.0042	-0.012 ± 0.0085	0.015 ± 0.02	-0.0125 ± 0.06	-0.024 ± 0.085	-0.4295 ± 0.0021	0.0015 ± 0.0078	-0.014 ± 0.013	0.009 ± 0.011	-0.008 ± 0.0014	0.0035 ± 0.0064	0.011 ± 0.0057	-0.0015 ± 0.00071	-0.0005 ± 0.015	0.0265 ± 0.012
KF3CT:CXCL10/IP-10	-0.016 ± 0.018	-0.0085 ± 0.021	-0.0005 ± 0.0021	0.0035 ± 0.0078	0.0025 ± 0.011	-0.0095 ± 0.026	-0.011 ± 0.021	-0.0085 ± 0.0021	-0.0125 ± 0.0035	-0.011 ± 0.0028	-0.282 ± 0.12	0.009 ± 0.04	-0.0005 ± 0.00071	0.019 ± 0.024	0.002 ± 0.011	-0.0025 ± 0.0035	0.006 ± 0.0099	0.0025 ± 0.013	-0.0075 ± 0.011	-0.009
HDF3CGF:CD54/ICAM-1	-0.031 ± 0.0099	-0.033 ± 0.011	-0.001 ± 0.0057	-0.0015 ± 0.012	0.011 ± 0.031	-0.009 ± 0.013	-0.0085 ± 0.018	0.011 ± 0.023	0.0035 ± 0.021	0.0055 ± 0.013	-0.076 ± 0.016	-0.0095 ± 0.019	-0.0255 ± 0.0035	-0.0285 ± 0.005	-0.0185 ± 0.0078	-0.0275 ± 0.0064	-0.0215 ± 0.0092	-0.0185 ± 0.0035	-0.0205 ± 0.00071	-0.012 ± 0.018
3C:CD141/Thrombomodulin	-0.0225 ± 0.00071	-0.0285 ± 0.011	-0.0035 ± 0.026	-0.0185 ± 0.029	-0.01 ± 0.035	-0.024 ± 0.016	-0.022 ± 0.014	-0.0115 ± 0.0092	-0.031 ± 0.055	-0.033 ± 0.02	-0.0155 ± 0.0021	-0.0175 ± 0.013	-0.001 ± 0.0085	-0.0005 ± 0.019	0.003 ± 0.055	-0.0165 ± 0.11	-0.0245 ± 0.12	0.0085 ± 0.018	-0.0145 ± 0.036	-0.023 ± 0.0028
KF3CT:CXCL8/IL-8	-0.0045 ± 0.016	0.013 ± 0.028	-0.004 ± 0.0099	-0.01 ± 0.035	0.0175 ± 0.056	0.001 ± 0.013	-0.0105 ± 0.00071	0.0115 ± 0.022	-0.013 ± 0.0071	-0.0275 ± 0.015	-0.047 ± 0.0042	0.0025 ± 0.0021	0.0185 ± 0.013	0.028 ± 0.017	0.006 ± 0.017	0.012 ± 0.0085	0.014 ± 0.0099	0.0305 ± 0.016	0.0045 ± 0.022	0.036 ± 0.016
lMphg:SRB	0.008 ± 0.0042	0.0105 ± 0.021	-0.005	-0.0115 ± 0.0092	-0.005 ± 0.0042	-0.0015 ± 0.005	0 ± 0.0099	0.003 ± 0.0014	-0.0035 ± 0.0035	-0.0055 ± 0.0064	-0.014 ± 0.0085	0.001 ± 0.0099	0.0015 ± 0.0035	0.004 ± 0.0071	-0.008 ± 0.0099	-0.0135 ± 0.0035	-0.0055 ± 0.016	-0.001 ± 0.0014	0 ± 0.013	-0.021 ± 0.0071
KF3CT:CCL2/MCP-1	-0.0975 ± 0.012	-0.157 ± 0.03	-0.017 ± 0.0099	-0.049 ± 0.025	0.011 ± 0.0099	-0.0175 ± 0.0092	-0.0305 ± 0.021	0.0205 ± 0.056	-0.0235 ± 0.00071	-0.008 ± 0.033	-0.295 ± 0.023	-0.001 ± 0.02	-0.0675 ± 0.035	0.009 ± 0.048	-0.006 ± 0.011	0.0105 ± 0.0021	0.0375 ± 0.07	-0.0025 ± 0.013	-0.002 ± 0.016	0.0115 ± 0.032
